Experimental data: PubChem BioAssay AID1322 (NMMLSC, 2008)
Active and inactive are the calls of the source. No rule for the calls is given here.

What follows are molecules tested against Bcl-2-like protein 1 (Homo sapiens) (UniProt Q07817) (assay: Bim-Bcl-XL interaction inhibitors, potency, dose response, biochemical, multiplexed, bead flow cytometry, human Bcl-XL (AID 1322; as to inhibition: test concentration not given here)). Conditions: Bead-based flow cytometry, Bim peptide-Bcl-XL binding, MCF.
Bcl-2-like protein 1 (Homo sapiens), sequence (Q07817 whole entry, looked up): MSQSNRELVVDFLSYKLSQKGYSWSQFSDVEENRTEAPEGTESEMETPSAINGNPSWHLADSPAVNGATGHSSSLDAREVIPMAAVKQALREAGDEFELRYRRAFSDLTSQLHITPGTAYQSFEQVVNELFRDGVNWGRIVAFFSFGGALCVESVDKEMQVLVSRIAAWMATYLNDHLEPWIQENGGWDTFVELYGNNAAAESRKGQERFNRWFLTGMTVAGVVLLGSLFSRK

outcome, inactive:
CC1CC2=C(NC(=S)NC2c2cccc(F)c2)/C(=C/c2cccc(F)c2)C1 (stereo unspecified)
BrC(=C\c1ccccc1)/C=N/N1CCN(c2ccccc2)CC1
Cc1ccc(C(=O)N(CCCN(C)C)c2nc3ccc(Cl)cc3s2)cc1C
N/C(=N\OC(=O)CCC1CCCC1)c1ccncc1
Fc1ccc(C2=Nc3cccc4cccc(c34)N2)cc1
Cc1cc(C)n(CC(=O)N/N=C/c2cccc([N+](=O)[O-])c2)n1
COC(=O)c1cccc(-n2c(C)cc(C=O)c2C)c1
COCCN=c1scc(-c2ccco2)n1/N=C/c1ccc(O)c(O)c1O
Cc1ccc(C(NC(=O)C(C)C)c2cc([N+](=O)[O-])c3cccnc3c2O)cc1 (stereo unspecified)

Same assay, conditions: Bead-based flow cytometry, Bim peptide-Bcl-XL binding, MCF

inhibition, inactive:
COCCn1nnnc1CN(Cc1ccco1)Cc1cc2cc3c(cc2[nH]c1=O)OCO3
COc1cc(/C=C2/NC(=O)N(Cc3ccccc3F)C2=O)cc(OC)c1O
Cc1cc(/C=C(/C#N)C(=O)Nc2ccc(Cl)cc2)c(C)n1-c1cccnc1
Cc1cccc(N2C(S)=C(C#N)C(=O)NC2c2cccs2)c1 (stereo unspecified)
CCSc1nnc(NC(=O)c2c(-c3ccccc3Cl)noc2C)s1
COc1ccc(C2CC(=O)C3=C(C2)Nc2ccccc2NC3c2coc3ccccc3c2=O)cc1OC (stereo unspecified)
C=CCn1c(C)c(C(C)=O)c(N2CCOCC2)nc1=S
OC(CNC1CCCCC1)COCCOc1ccc(Br)cc1 (stereo unspecified)
CCN1CCN(c2ccc(NC(=O)c3cccc4ncccc34)cc2)CC1
CCN(CC)c1ccc(NC(=O)c2cccc(C)c2)cc1S(=O)(=O)Nc1ccccc1OC
COc1cc(N=c2ssnc2Cl)c(OC)cc1Cl
CNC(=S)N(Cc1cccs1)Cc1cc2ccc(OC)cc2[nH]c1=O
Cc1ccc(-c2cc(C(=O)OCC(=O)N(C)C3CCS(=O)(=O)C3)c3ccccc3n2)o1 (stereo unspecified)
CCNC(=O)N1c2ccc(OCC)cc2C(C)=CC1(C)C
O=C(Nc1ccc2nc(-c3ccco3)c(-c3ccco3)nc2c1)N1CCCCCC1
CCOC(=O)c1c(NC(C)=O)sc2c(O)c(Br)cc(Br)c12
CCOCCOc1nc2c(c(=O)n(C)c(=O)n2C)n1CCc1ccccc1
c1ccc(C2=Nc3cccc4cccc(c34)N2)cc1
Cc1ccc(CNc2ccc3c(c2)OCO3)c(C)c1
CC(=O)Nc1ccc(NC2=C(Cl)C(=O)c3ccccc3C2=O)cc1
c1coc(C2=Nc3cccc4cccc(c34)N2)c1
CCOC(=O)C1=C(Cc2ccc(OC)cc2)C(=O)c2ccccc2C1=O
CCOc1ccc(CNc2ccc(N3CCCC3)cc2)cc1
CCOC(=O)c1[nH]cnc1C(=O)NC(C)C
O=C(Nc1ccc(Cl)cn1)Nc1ccccc1F
COc1ccc(N2C(=O)C(Cl)=C(Oc3cccc(OC)c3)C2=O)cc1
CC(C)(C)c1nc(NCCN2CCOCC2)c2nnn(Cc3ccccc3Cl)c2n1
CNC(=O)/C(C#N)=C/c1c(N(Cc2ccccc2)Cc2ccccc2)nc2c(C)cccn2c1=O
NC(=O)c1c(N)sc2c1CCCCC2
O=c1[nH]c2ccc(N=Cc3c(O)ccc4cc(Br)ccc34)cc2[nH]1
OCCC1CN(Cc2nc3c(s2)CCCC3)CCN1Cc1ccsc1 (stereo unspecified)
O=C(O)CCN1C(=O)/C(=C\c2ccc(-c3nc4ccccc4s3)o2)SC1=S
COc1ccc(S(=O)(=O)NCCSc2ccc(Cl)cc2)cc1OC
Fc1ccccc1/C=C1\CCCC2=C1NC(=S)NC2c1ccccc1F (stereo unspecified)
CN(C)[C@@H]1C(=O)C(C(=O)NCN2CCCC2)=C(O)[C@@]2(O)C(=O)C3=C(O)c4c(O)cccc4[C@@](C)(O)C3CC12 (stereo partly specified)
CC(C)CNC(=O)c1cccc(NC(=O)c2ccc(Cl)c([N+](=O)[O-])c2)c1
NC(=O)c1c(NC(=O)C2CCCO2)sc2c1CCCCC2 (stereo unspecified)
C/C(=N\NC(=O)COc1ccc(C#N)cc1)c1ccccc1OC(F)F
COc1ccc2nc(C)cc(SCC(=O)N/N=C/c3ccc(O)cc3O)c2c1
O=[N+]([O-])c1ccc(-c2cn(-c3ccc(Cl)cc3)c(=S)[nH]2)cc1
COc1c(F)c(F)c(C(=O)Nc2ccccc2N2CCN(C(=O)C(C)C)CC2)c(F)c1F
Cc1ccc(C)c(/C=C/C(=O)c2ccccc(=O)c2O)c1
O=C(Nc1ccncc1)c1cc2ccccc2o1
Cc1ccc2nc3c(cc(C(N)=S)c(=N)n3CCCOC(C)C)c(=O)n2c1
Cc1ccc(C2=N/C(=C/c3cccs3)C(=O)N2Nc2ccccc2)cc1
COc1ccc(NC(=O)COc2ncnc3ccccc23)cc1S(=O)(=O)N1CCOCC1
CCN1CCN(c2cc(C)c3cc(NC(=S)N4CC(C)CC(C)C4)ccc3n2)CC1 (stereo unspecified)
CCOC(=O)C1=C(CP(=O)(c2ccccc2)c2ccccc2)NC(=O)NC1c1ccc(OC)cc1 (stereo unspecified)
O=[N+]([O-])c1cccc(S(=O)(=O)NCC2CCCO2)c1 (stereo unspecified)
Cc1ccc2c(c1)c(C)c(C)n2CC(O)Cn1nc(C)c(Br)c1C (stereo unspecified)
O=C(Cc1ccc(-c2ccccc2)cc1)NC1CCCC1
Cc1csc(SCCn2c(N3CCN(c4ccccc4)CC3)nc3c2c(=O)[nH]c(=O)n3C)n1
NC(=O)c1c(NC(=O)C2CCCO2)sc2c1CCCC2 (stereo unspecified)
CCOC(=O)CSc1nnc(-c2cccc(Cl)c2)n1CC
COc1cc2c(cc1OC)C(c1ccccc1F)OC(=O)C2 (stereo unspecified)
CCN1CCN(c2ccc(NC(=O)c3ccc4c(c3)[nH]c(=O)n4Cc3ccc(OC)cc3)cc2)CC1
CC(C)NS(=O)(=O)c1ccc(OCC(=O)Nc2ccc(F)cc2)cc1
